Data published in patent publication US20090042208A1, “Assays for erectile and bladder dysfunction and vascular health” (priority 2007, published 2009).
Marks after values point to notes of the source that are not given here. Ends that are not written are not given here.

Experiments:
[1] = test system: Vcsa1 and Slo transcripts in corporal tissue; experiment: Quantitative RT-PCR of Vcsa1 and Slo transcripts in corpora after tadalafil, pVAX-hSlo or both; assay type: in vivo, rat; conditions: tadalafil 2.5 mg/kg orally 2 h before; pVAX-hSlo 1000 μg 1 month before; or both
Procedure: (§1) In a second set of animals (retired breeder, male Sprague Dawley rats) in which the effect of tadalafil was to be measured alone or in combination with pVAX-hSlo, 1000 μg pVAX-hSlo was administered to 10 animals 1 month prior to determination of erectile function and gene expression. Five of these animals were treated with 2.5 mg/kg of tadalafil orally two hours prior to ICP/BP measurement. A third group of five animals were untreated controls, and the fourth group of five animals treated with 2.5 mg/kg of tadalafil orally. two hours prior to ICP/BP measurement.
RNA Isolation from corporal tissue. Following the ICP/BP measurement, animals were euthanized and corporal tissues isolated and flash frozen in liquid nitrogen. […]
Measurement of gene expression by quantitative RT-PCR. RNA extracted either from corporal tissue or transfected corporal smooth muscle cells was used to analyze gene expression by quantitative RT-PCR. […] Real-time quantitative PCR analysis was performed using the 7300 real-time PCR system (Applied Biosystems, Foster City, Calif.).
The PCR reactions for all samples were performed in 96-well plates, with 2 μl cDNA, 100 nM each primer, and 12.5 μl of Sybr Green in a 25-μl reaction volume. […] The relative quantified value for each target gene in corpora of treated rats is expressed as 2^−(Ct−Cc) (Ct and Cc are the mean threshold cycle differences after normalizing to RPL24). […]

retired breeder rats = experiment: Longest visually observed erection and ICP/BP after tadalafil, pVAX-hSlo or both; assay type: in vivo, rat; conditions: tadalafil 2.5 mg/kg orally 2 h before; pVAX-hSlo 1000 μg intracorporal 1 month before
Procedure: as §1
ICP/BP measurement. ICP/BP was measured essentially as previously described (Christ et al. 1998; Melman et al. 2003). Briefly, animals were anesthetized by intraperitoneal injection of pentobarbital sodium (35 mg/kg). An incision was made in the perineum, and the corpus cavernosum exposed. The cavernous nerves were identified adjacent to the prostate gland. Direct electrostimulation of a cavernous nerve was performed with a delicate stainless steel bipolar hook electrode attached to the multi-jointed clamp. […] Prior to electrostimulation the longest visually observed erection was measured. […] The changes in ICP and systemic BP were recorded at each level of neurostimulation. The mean ICP/BP, standard deviation, and analysis of variance were calculated for each of the treatment groups.

[2] = test system: isolated corporal smooth muscle tissue; experiment: Contractility (relaxation rate) of isolated corporal smooth muscle strips; parameters: species or system rat
Procedure: Studies of contractility of isolated smooth muscle tissue were carried out as described previously (Chang et al. 2003, Spektor et al. 2002). Four longitudinal strips of cavernous tissue from the crura of old animals (n=4) were dissected free from the tunica albuginea and were suspended between two small surgical hooks in a tension-measuring device (Multimyograph Model 610M, Copenhagen, Denmark) that allows simultaneous monitoring of four muscle strips. Tissue was equilibrated for 90 min in 6 ml Krebs-Henseleit buffer composed of 110 mM NaCl, 4.8 mM. KCl, 2.5 mM CaCl2, 1.2 mM MgSO4, 1.2 mM KH2PO4, 25 mM NaHCO3, 11 mM glucose, and dextrose in glass-distilled water. Organ chambers were maintained at 37° C. and continuously bubbled with 95% O2 and 5% CO2 to maintain a mean pH of 7.4±0.1. Continuous recording of tension developed by the muscle strips was carried out using Powerlab software (Chart version 4.2.4, ADinstruments, CO) on a dedicated computer. Strips of corpus cavernosum first were precontracted with phenylephrine (10^−6 M). Then, relaxation was induced using CNP (10^−6 M). […] Results from four separate strips from four animals were averaged and the significance determined by the Student's t test.

[3] = test system: retired breeder male Sprague-Dawley rats; experiment: ICP/BP and blood pressure after intracorporal injection of sialorphin; assay type: in vivo, rat; conditions: 10 and 100 μg intracorporal
Procedure: Experiments were carried out on 9- to 10-month-old retired breeder male Sprague-Dawley rats weighing more than 500 g (as described in Melman et al. 2005). When measurements were complete, animals were killed by placement within a CO2 gas chamber. All protocols were approved by the Animal Use Committee and Internal Review board at the Albert Einstein College of Medicine.
The sialorphin peptide (2 mg) was dissolved in 0.5 ml of 0.01 N acetic acid and then was vortexed, and the solution was centrifuged for a few seconds at approximately 1000 g and 4° C. (to gather all the liquid at the bottom of the tube). The stock solution was stored in 25-μl aliquots (100 μg) at −70° C. Before use, the stock was thawed on ice, and phosphate buffered saline (pH 7.4) was added to bring the volume to 150 μl.
Intracorporal microinjection of sialorphin into rat corporal tissue was modified from previously described procedures, where plasmids were injected intracorporeally to investigate their effect on the ICP/BP ratio (Christ et al. 1998, 2004; Melman et al. 2005). […] The changes in ICP and systemic BP were recorded at both levels of neurostimulation. […] Mean ICP/BP (n=7) and standard deviation were calculated before and after treatment. Significant change in the ICP/BP value from that of the pretreatment group was determined by Student's t test.

CN1CC(=O)N2[C@H](c3ccc4c(c3)OCO4)c3[nH]c4ccccc4c3C[C@@H]2C1=O [tadalafil]
Vcsa1 expression increase versus untreated animals [1]: approximately 4 fold
Longest erection time, difference to untreated control groups (retired breeder rats): about 100 seconds
Longest measured erection time (retired breeder rats): approximately 210 seconds

C-type natriuretic peptide [CNP]
Increase in the relaxation rate of the tissue ([2]; 1 μM CNP, versus carrier): 67%
Rate of Tension Loss ([2]; strips precontracted with 1 μM phenylephrine, 1 μM CNP and/or 1 μg/ml sialorphin): 0.087* g/min

QHNPR [sialorphin, QHNPR]
Effect on systemic blood pressure [3]: no effect
